Results reported in the supplement of paper PMC10307832.

Columns and labels:
Assay in all cases: relative viability (nuclei count vs DMSO), 5 days (fraction); higher = more cells survive
Motesanib + Palbociclib = compound: CC1(C)CNc2cc(NC(=O)c3cccnc3NCc3ccncc3)ccc21 [Motesanib] + CC(=O)c1c(C)c2cnc(Nc3ccc(N4CCNCC4)cn3)nc2n(C2CCCC2)c1=O [Palbociclib] (partner 0.5 µM)
Outline: (§1)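 Relative viability divides the nuclei count in treated wells by that in vehicle wells. Lung cancer cell lines were seeded in 1536-well plates, dosed by pin tool the next day, and fixed and stained after 5 days in one step with final 0.05% Triton X-100, 1% formaldehyde and 1 ug/ml Hoechst. Dosing was a single drug or a fixed anchor-drug dose plus five library-drug doses (not always all listed) in √10 steps, and values are medians of duplicate plates imaged at 4×.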

[1] = compound: C[C@@]1(C(=O)Nc2ccc(F)nc2)CCCN1c1nc(Nc2cc(C3CC3)n[nH]2)c2cccn2n1 + CC(=O)c1c(C)c2cnc(Nc3ccc(N4CCNCC4)cn3)nc2n(C2CCCC2)c1=O [Palbociclib] (partner 0.5 µM)
Outline: as §1

Motesanib + Luminespib = compound: CC1(C)CNc2cc(NC(=O)c3cccnc3NCc3ccncc3)ccc21 [Motesanib] + CCNC(=O)c1noc(-c2cc(C(C)C)c(O)cc2O)c1-c1ccc(CN2CCOCC2)cc1 [Luminespib] (partner 0.01 µM)
Outline: as §1

Motesanib + AZD7762 = compound: CC1(C)CNc2cc(NC(=O)c3cccnc3NCc3ccncc3)ccc21 [Motesanib] + NC(=O)Nc1cc(-c2cccc(F)c2)sc1C(=O)N[C@H]1CCCNC1 [AZD7762] (partner 0.2 µM)
Outline: as §1

Row | Cell Line | relative viability (Motesanib + Palbociclib; first compound 0.01 µM) | relative viability (Motesanib + Palbociclib; first compound 0.03162 µM) | relative viability (Motesanib + Palbociclib; first compound 0.1 µM) | relative viability (Motesanib + Palbociclib; first compound 0.3162 µM) | relative viability (Motesanib + Palbociclib; first compound 1 µM) | relative viability ([1]; first compound 0.04 µM) | relative viability ([1]; first compound 0.1265 µM) | relative viability ([1]; first compound 0.4 µM) | relative viability ([1]; first compound 1.265 µM) | relative viability (Motesanib + Luminespib; first compound 0.01 µM) | relative viability (Motesanib + Luminespib; first compound 0.03162 µM) | relative viability (Motesanib + Luminespib; first compound 0.1 µM) | relative viability (Motesanib + Luminespib; first compound 0.3162 µM) | relative viability (Motesanib + Luminespib; first compound 1 µM) | relative viability (Motesanib + AZD7762; first compound 0.01 µM) | relative viability (Motesanib + AZD7762; first compound 0.03162 µM) | relative viability (Motesanib + AZD7762; first compound 0.1 µM) | relative viability (Motesanib + AZD7762; first compound 0.3162 µM) | relative viability (Motesanib + AZD7762; first compound 1 µM)
1 | SK-LU-1 | 0.386 | 0.438 | 0.44 | 0.409 | 0.401 | 0.391 | 0.358 | 0.341 | 0.37 | 0.219 | 0.188 | 0.195 | 0.204 | 0.158 | – | – | – | – | –
2 | COR-L 105 | 0.393 | 0.45 | 0.401 | 0.438 | 0.448 | 0.416 | 0.422 | 0.435 | 0.438 | 0.737 | 0.894 | 0.896 | 0.73 | 0.843 | – | – | – | – | –
3 | HCC-366 | 0.354 | 0.36 | 0.367 | 0.452 | 0.435 | 0.338 | 0.313 | 0.28 | 0.243 | – | – | – | – | – | 0.278 | 0.214 | 0.46 | 0.248 | 0.207
4 | NCI-H1648 | 0.305 | – | – | 0.28 | 0.261 | 0.257 | 0.246 | 0.269 | 0.259 | – | – | – | – | – | 0.496 | – | – | 0.702 | 0.597
5 | NCI-H596 | – | – | – | – | – | – | – | – | – | 1.17 | 0.917 | 1.07 | 0.988 | 0.871 | 0.973 | 0.825 | 1.09 | 1.01 | 1.13
6 | NCI-H2228 | 0.664 | 0.8 | 0.589 | 0.937 | 0.613 | 0.694 | 0.425 | 0.463 | 0.498 | 0.19 | 0.148 | 0.228 | 0.142 | 0.163 | – | – | – | – | –
7 | SK-MES-1 | 0.322 | 0.319 | 0.316 | 0.331 | 0.351 | 0.34 | 0.355 | 0.293 | 0.282 | 0.84 | 0.842 | 0.986 | 0.785 | 0.721 | – | – | – | – | –
8 | SW 1573 | 0.321 | 0.385 | 0.498 | 0.38 | 0.444 | 0.342 | 0.262 | 0.294 | 0.304 | 0.152 | 0.266 | 0.207 | 0.323 | 0.335 | – | – | – | – | –
9 | NCI-H661 | 0.43 | 0.414 | 0.43 | 0.435 | 0.402 | 0.388 | 0.427 | 0.412 | 0.386 | 0.912 | 0.968 | 0.948 | 0.952 | 0.901 | – | – | – | – | –
10 | NCI-H520 | 0.209 | 0.215 | 0.235 | 0.234 | 0.225 | 0.254 | 0.196 | 0.201 | 0.218 | 0.22 | 0.276 | 0.27 | 0.196 | 0.242 | – | – | – | – | –
11 | NCI-H2023 | 0.365 | 0.378 | 0.361 | 0.385 | 0.401 | 0.255 | 0.22 | 0.174 | 0.209 | 0.778 | 0.687 | 0.855 | 0.811 | 0.783 | – | – | – | – | –
12 | NCI-H2009 | 0.273 | 0.246 | 0.276 | 0.246 | 0.264 | 0.221 | 0.258 | 0.162 | 0.212 | 1.01 | 1.04 | 0.945 | 1.07 | 1.01 | – | – | – | – | –
